Columns and labels:
iRS cells = experiment: Conversion of iRS cells to DsRed-negative (pluripotent) cells in high-density culture; format: cell-based, human; conditions: 0.5 mM added to MEF-conditioned medium, high-density culture (1×10^6 cells, 3 cm dish), day 6 after plating
Protocol: (§1) CM is conditioned medium.
The iRS cells were plated at a high density (1×10^6 cells) on a 3 cm dish coated with Matrigel, and culture was continued in a MEF-conditioned medium. From day 3, DsRed-negative cells were occasionally found, and DsRed-negative cell clump could be confirmed on day 6. On day 10, ES cell-like colony could be confirmed (FIG. 3A). The expression levels of exogenous OCT4 and SOX2 at that time were confirmed by quantitative PCR. Expression of exogenous gene disappeared on day 6 of high-density culture, and re-expression was void thereafter (FIG. 3B). Furthermore, the expression levels of the endogenous OCT4, TDGF1 and ECAD were confirmed by quantitative PCR. As a result, expression of these pluripotent marker genes was confirmed (FIG. 3C). Similarly, the mRNA expression levels of other pluripotent marker genes were confirmed on a heat map. As a result, mostly similar gene expression profiles were confirmed on day 6 and day 10 (FIG. 3D). Moreover, SSEA4 and ECAD, which are surface antigen markers showing pluripotency, were tested by an immunostaining method. As a result, both surface antigens could be recognized from day 6 (FIG. 3E). […]
iRS cells were plated at a high density (1×10^6 cells) on a 3 cm dish coated with Matrigel, 0.5 mM VPA was added to the MEF-conditioned medium and culture was continued. […] Phosphorylation of mTOR then was measured. […]

[1] = system: phosphorylated mTOR (p-mTOR); experiment: Phosphorylation of mTOR in iRS cells; format: cell-based, human; conditions: addition to conditioned medium, vs DMSO control
Protocol: as §1
iRS cells were plated at a high density (1×10^6 cells) on a 3 cm dish coated with Matrigel, 0.5 mM VPA was added to the MEF-conditioned medium and culture was continued. […] Phosphorylation of mTOR then was measured.

CCCC(CCC)C(=O)[O-].[Na+] [VPA, sodium valproate]
conversion rate to DsRed-negative cells (iRS cells): strikingly high
amount of phosphorylated mTOR (p-mTOR) [1]: increased
